In article PMC11613437, “Prioritization of Eleven-Nineteen-Leukemia Inhibitors as Orally Available Drug Candidates for Acute Myeloid Leukemia” (Journal of Medicinal Chemistry, 2024):
Read-outs that look alike come from different tables or passages of the source.

Key:
[1] = Cell toxicity assay (CCK-8), MV4-11; format: cell-based; settings: human, MV4-11 cells, 8 day treatment, n = 3; read-out: CC50 MV4-11 (Cellular IC50, 8-days incubation)
Experimental: (§1) Approximately 1 × 10^4 JURKAT, MOLM-13, MV4-11 and HEK293T cells in RPMI 1640 (no phenol red) (100 μL) were added to a 96-well plate and treated with DMSO or a compound at indicated concentrations for 72 h or 8 days. Cell viability was measured using the CCK-8 kit (Abcam, ab228554) according to the manufacturer’s instructions.

[2] = Body weight of xenografted NSG mice under treatment; format: in vivo
From the text: Animal studies were approved by the Texas A&M’s Institutional Animal Care and Use Committees. The 5 week-old female NSG mice (NOD.Cg-PrkdcscidIl2rgtm1Wjl/SzJ, Jackson Laboratory #005557) were ordered and kept under pathogen-free conditions for 1 week with free access to food and water after arrival for acclimation. Tumor models in these mice were then built by engrafting 1 × 10^6 MOLM-13-Luc cells (BPS Bioscience, 78372) through tail vein injection. Tumors were allowed to grow for 6 days, and then applied for treatment by oral gavage daily (day 0 was the beginning of treatment). Dosage of 200 or 400 mg/kg (vehicle of 5% DMSO, 45% PEG400, 2.5% Tween 80, and 47.5% water) was applied. Tumor growth was evaluated by bioluminescent imaging (BLI) using an IVIS In Vivo Imaging System by intraperitoneal injection of 150 mg/kg D-Luciferin potassium salt (MedChemExpress, HY-12591B). Their body weights were recorded every 2–3 days. Surviving mice were counted every day and the mortality was calculated. No animal was excluded from any of the analyses. The investigators were not blinded to allocation during experiments and outcome assessment.

[3] = In vitro metabolic stability assay in HLM; format: in vitro ADME, human; settings: for CLint scaled at 1 h: read-out: Liver Microsome CLint, pred
Experimental: At 0, 5, 15, 30, 45, and 60 min, 200 μL acetonitrile (with the internal standard diclofenac as 10 μg/mL) was added to terminate the reaction, the remaining compound was analyzed by HPLC-MS/MS.

[4] = system: MV4-11 cells; test: Anti-proliferation assay, MV4-11; format: cell-based; settings: Homo sapiens, MV4-11, 336 h, approximately 2 weeks, read-out: inhibition of MV4-11 cell proliferation
Experimental: Cell proliferation assays were carried out in a 96-well tissue culture plate at 2 × 10^4 cells/well for all cell lines except in 200 μL with a compound added as 1:1000 dilution of DMSO stocks in triplicate. Culture density was determined every 3–4 days using the countess automated cell counter, after which 2 × 10^4 live cells were reseeded in fresh media and compound. The cumulative cell count was achieved by back calculation.

[5] = PK analysis in mice; format: in vivo; settings: plasma; for half-life at 24 h: read-out: t1/2 (h), PO (converted)
Experimental: Male CD-1 mice were used in the PK study. A compound was dissolved in a mixed solution containing 75% PEG300 and 25% D5W (5% dextrose in distilled water) or another solution containing 0.5% methyl cellulose and 0.5% Tween 80 in water at indicated dosage for i.v. and p.o. administrations, respectively. Three mice were used for each administration. Blood samples were taken from a vein at different time points up to 24 h after dosing, collected in tubes coated with an anticoagulant, and centrifuged at 1.5 × 10^4 g for 5 min to obtain plasma samples. Acetonitrile-containing internal standard (Labetalol, 100 ng/mL) was added to the plasma to precipitate proteins. The samples were subjected to vortex mixing for 10 min and then centrifugation at 4 °C for 15 min at 3220g. Then clear supernatants were analyzed by HPLC-MS/MS.

[6] = system: MOLM-13 and MV4-11 cells; test: Cell cycle analysis; format: cell-based; settings: 72 h treatment
Experimental: For cell cycle analysis, 5 × 10^6 cells were cultured at 2 mL/well in a 6-well plate treated in a ratio of 1:1000 with compound stocks in DMSO or 1:1000 with DMSO in triplicate. Cell cycle staining was performed by using a cell cycle analysis kit (Abcam, ab287852) and treated according to the protocol provided. The signal was analyzed by flow cytometry and the cytometry results were analyzed by CytExpert software.

[7] = target: T1, ENL (Homo sapiens, UniProt Q03111); test: Cellular thermal shift assay (CETSA); format: cell-based; settings: MOLM-13 and MV4-11 cells, 10 μM, 3 and 6 h
T1 construct: CETSAs of ENL in MOLM-13 (top) and MV4-11 (bottom) cells; endogenous in cells; host or cells: MOLM-13 and MV4-11
T1 sequence (Q03111 1-559): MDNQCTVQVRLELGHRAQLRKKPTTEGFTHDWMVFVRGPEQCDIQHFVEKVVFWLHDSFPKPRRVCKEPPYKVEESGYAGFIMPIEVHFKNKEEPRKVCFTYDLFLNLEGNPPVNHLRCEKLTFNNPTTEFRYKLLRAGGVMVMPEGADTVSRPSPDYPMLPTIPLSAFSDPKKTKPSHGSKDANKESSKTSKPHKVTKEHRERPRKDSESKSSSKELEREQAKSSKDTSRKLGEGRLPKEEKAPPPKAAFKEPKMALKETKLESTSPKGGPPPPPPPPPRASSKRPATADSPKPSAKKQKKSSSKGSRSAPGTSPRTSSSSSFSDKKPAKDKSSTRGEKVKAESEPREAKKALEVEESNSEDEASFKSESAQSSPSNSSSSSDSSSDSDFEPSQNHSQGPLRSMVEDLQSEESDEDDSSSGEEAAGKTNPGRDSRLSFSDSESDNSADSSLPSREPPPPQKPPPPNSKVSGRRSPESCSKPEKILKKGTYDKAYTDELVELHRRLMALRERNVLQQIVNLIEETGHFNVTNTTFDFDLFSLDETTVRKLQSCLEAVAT
Experimental: MOLM-13 and MV4-11 were incubated with 10 μM of inhibitor 13 for 3 and 6 h, respectively. The cells were then collected and washed with PBS 3 times. The cell pellets were resuspended in PBS-containing protease inhibitors and aliquoted into PCR microtubes (approximately 3 million cells in 54 μL). Cells were heated at indicated temperatures for 3 min in a thermal cycler (Bio-Rad) and then incubated at room temperature for 2 min. A total of 6 μL of 10× cell lysis buffer (8% NP-40, 50% glycerol, and 10 mM dithiothreitol) was added to each sample before subjecting the sample to three freeze–thaw cycles by liquid nitrogen and 37 °C water bath incubations to lyse the cells. The cell lysates were centrifuged at 13,000 rpm at 4 °C for 10 min, and the supernatants were analyzed using SDS-PAGE and Western blotting.

[8] = Cell toxicity assay (CCK-8), MOLM-13; format: cell-based; settings: human, MOLM-13 cells, 8 day treatment, n = 3; read-out: CC50 MOLM-13 (Cellular IC50, 8-days incubation)
Experimental: as §1

[9] = human, human liver microsomes, pH 7.4, HLM 0.5 mg/mL, NADPH 1 mM, mean ± SD, n = 3
[10] = human, human liver microsomes, pH 7.4, HLM 0.5 mg/mL, NADPH 1 mM, mean ± SD, n = 3, read-out: Liver Microsome t1/2
[11] = mouse, male CD-1 mice, PO 20 mg/kg
[12] = mouse, male CD-1 mice, PO 20 mg/kg, read-out: AUC0–inf, oral

| Structure (SMILES) | IC50 at 8 days [1] | tolerability / body weight loss ([2]; 200 mg/kg PO QD) | tolerability / body weight loss ([2]; 400 mg/kg PO QD) | CLint scaled at 1 h [3, 9] | half-life at 1 h [3, 10] | parent compound remaining after 60 min incubation in HLM ([3]; in the presence of NADPH, 60 min) | inhibition at 1 µM [4] | inhibition at 10 µM ([4]; 10 μM) | half-life ([5]; mouse, male CD-1 mice, IV 20 mg/kg, read-out: t1/2, IV (converted)) | Cmax at 24 h [5, 11] | AUC(0-inf) at 24 h [5, 12] | half-life at 24 h [5, 11] | cell cycle: G1 phase [6] | CETSA: thermal stability of ENL vs DMSO at elevated temperatures [7] | IC50 at 8 days [8] | Liver Microsome t1/2 ([3]; HLM 0.5 mg/mL, NADPH 1 mM, mean ± SD, n = 3) | half-life [3, 10] | Cmax ([5]; male, CD-1, mouse, mice, PO 20 mg/kg, corresponds to 285 ng/mL, read-out: oral Cmax expressed as effective concentration) | AUC(0-inf) [5, 12] | Cmax ([5]; mouse, male CD-1 mice, PO 20 mg/kg, read-out: Cmax, oral) |
| --- | --- | --- | --- | --- | --- | --- | --- | --- | --- | --- | --- | --- | --- | --- | --- | --- | --- | --- | --- | --- |
| CC(C)C1CCN1Cc1ccc(CNC(=O)c2ccc3nncn3c2)cc1 (stereo not shown) [inhibitor 13] | 6.72 µM | no significant body weight loss observed | without significant body weight loss until day 15 | 4.09 mL/min/kg | 7.11 ± 0.663 h | over 90% | 41% | 75% | 1.05 ± 0.03 h | 2080 ng/mL | 5140 ng·h/mL | 0.84 h | increase in the G1 phase | higher abundance of ENL | 6.06 µM | – | – | – | – | – |
| CC(C)[C@H]1CCN1Cc1cc2cnc(NC(=O)c3ccc4nncn4c3)cc2[nH]1 [SR-C-107 (R), (R)-N-(2-((2-Isopropylazetidin-1-yl)methyl)-1H-pyrrolo[3,2-c]pyridin-6-yl)-[1,2,4]triazolo[4,3-a]pyridine-6-carboxamide] | 0.81 ± 0.15 µM | no significant body weight loss observed | – | 4.18 mL/min/kg | – | – | ~70% | – | – | – | – | 1.41 h | increase in the G1 phase | higher abundance of ENL | 1.25 ± 0.18 µM | 6.9717 ± 0.6597 h | 6.97 h | 750 nM | 808 ng·h/mL | 285 ng/mL |
